The results in this text go back to patent US10000486B2 (priority 2012, dated 2018).

Like-named read-outs stand apart in the source and are kept apart here. Where only a bound is given, the exact number is not on record here.

For assay [1], the system named is Lassa GP-pseudotyped-virus. The assay is described as follows: microbe, parasite or virus in culture. In kind it is cell-based, Lassa fever virus. The following applies: Human immunodeficiency virus 1, read-out: Activity (EC50 in μM vs. pseudotyped virus) Lassa.
A further assay concerns VSVg pseudotyped virus. The assay can be described thus: organism not typed. The assay is classed as cell-based.
The subject of a further assay is Sabiá pseudotyped virus. The assay is described as follows: organism not typed. The settings on record: read-out: Activity (EC50 in μM vs. pseudotyped virus) Sabiá. The assay is classed as cell-based.
The subject of another assay is Junín pseudotyped virus. The assay can be described thus: organism not typed. The following applies: read-out: Activity (EC50 in μM vs. pseudotyped virus) Junín. The assay is classed as cell-based.
Assay [2] concerns Machupo pseudotyped virus. The assay can be described thus: organism not typed. In kind it is cell-based.
Where [3] appears, read: read-out: Activity (EC50 in μM vs. pseudotyped virus) VSVg.
Setting [4] is: read-out: Activity (EC50 in μM vs. pseudotyped virus) Machupo.

Regarding `CC(C)(C)Oc1ccc(-n2cnc3cc(/C=C\c4ccc(C(C)(C)C)cc4)ccc32)cc1` [Compound 17, 1-(4-tert-butoxyphenyl)-5-[(Z)-2-(4-tert-butylphenyl)vinyl]benzimidazole], the EC50 is < 1 µM in assay [1], 10 to 50 µM in the assay on VSVg pseudotyped virus (setting [3]) and < 1 µM in the assay with Sabiá pseudotyped virus.

With `CC(C)Oc1ccc(-n2cnc3cc(/C=C\c4ccc(C5(O)COC5)cc4)ccc32)cc1` [Compound 53, 3-[4-[(Z)-2-[1-(4-isopropoxyphenyl)benzimidazol-5-yl]vinyl]phenyl]oxetan-3-ol], the 50% effective concentration (EC50) with Junín pseudotyped virus is < 1 µM; in assay [1], < 1 µM; in assay [2] (setting [4]) it was < 1 µM; in the assay on VSVg pseudotyped virus (setting [3]), 1 to 10 µM.

On to `CCOc1ccc(-n2cnc3cc(/C=C\c4ccc(C(F)(F)F)cc4)ccc32)cc1` [Compound 13], for which the EC50 was < 1 µM in the assay with Junín pseudotyped virus, < 1 µM in assay [1], < 1 µM in assay [2] (setting [4]) and 10 to 50 µM in the assay on VSVg pseudotyped virus (setting [3]).

As for `CCOc1ccc(-c2cnc3cc(NCc4ccc(CC)cc4)ccn23)cc1` [Compound 65, 3-(4-ethoxyphenyl)-N-[(4-ethylphenyl)-methyl]imidazo[1,2-a]pyridin-7-amine], the EC50 was < 1 µM in the assay with Junín pseudotyped virus, < 1 µM in assay [1], < 1 µM in assay [2] (setting [4]) and 1 to 10 µM in the assay with VSVg pseudotyped virus (setting [3]).

For the molecule `CCOc1ccc(-n2cnc3cc(/C=C\c4ccc(C(C)(C)C)cc4)ccc32)cc1` [Compound 5, 5-[(Z)-2-(4-tert-butylphenyl)vinyl]-1-(4-ethoxyphenyl)benzimidazole], the EC50 in the assay on Junín pseudotyped virus is < 1 µM; in assay [1], < 1 µM; in assay [2] (setting [4]) it was < 1 µM; in the assay with VSVg pseudotyped virus (setting [3]), 10 to 50 µM; in the assay on Sabiá pseudotyped virus, < 1 µM.

Take `CCOc1ccc(-n2cnc3cc(C#Cc4ccc(CC)cc4)cnc32)cc1` [Compound 26, 3-(4-ethoxyphenyl)-6-[2-(4-ethylphenyl)-ethynyl]imidazo[4,5-b]pyridine]: the EC50 in the assay on Junín pseudotyped virus was 1 to 10 µM; in assay [1], 1 to 10 µM; in assay [2] (setting [4]) it was 10 to 50 µM; in the assay with VSVg pseudotyped virus (setting [3]), 10 to 50 µM.

For `COc1ccc(-n2cnc3cc(OCc4ccc(C(C)C)cc4)cnc32)cc1` [Compound 32, 6-[(4-isopropyl-phenyl)methoxy]-3-(4-methoxyphenyl)imidazo[4,5-b]pyridine], the EC50 is < 1 µM with Junín pseudotyped virus; < 1 µM in assay [1]; < 1 µM in assay [2] (setting [4]); 10 to 50 µM in the assay on VSVg pseudotyped virus (setting [3]); < 1 µM in the assay on Sabiá pseudotyped virus.

As to `CCc1ccc(/C=C\c2ccc3c(c2)ncn3-c2ccc(OC(C)C)cc2)cc1` [Compound 9, 5-[(Z)-2-(4-ethylphenyl)vinyl]-1-(4-isopropoxyphenyl)-benzimidazole], the EC50 in the assay with Junín pseudotyped virus is < 1 µM; in assay [1], < 1 µM; in assay [2] (setting [4]), < 1 µM; with VSVg pseudotyped virus (setting [3]) it was 10 to 50 µM; with Sabiá pseudotyped virus, < 1 µM.

In the case of `CC(C)Oc1ccc(-n2cnc3cc(/C=C\c4ccc(C5(O)CC5)cc4)ccc32)cc1` [Compound 48, 1-[4-[(Z)-2-[1-(4-isopropoxyphenyl)benzimidazol-5-yl]vinyl]phenyl]cyclopropanol], the concentration for a half-maximal effect (EC50) in the assay on Junín pseudotyped virus was < 1 µM; in assay [1], < 1 µM; in assay [2] (setting [4]), < 1 µM; in the assay with VSVg pseudotyped virus (setting [3]), 10 to 50 µM.

For `CCOc1ccc(-n2cnc3cc(/C=C/c4ccc(OC(F)(F)F)cc4)ccc32)cc1` [Compound 10, 1-(4-ethoxyphenyl)-5-[(E)-2-[4-(trifluoromethoxy)phenyl]vinyl]benzimidazole], the concentration for a half-maximal effect (EC50) with Junín pseudotyped virus was < 1 µM; in assay [1] it was < 1 µM; in assay [2] (setting [4]) it was 1 to 10 µM; in the assay on VSVg pseudotyped virus (setting [3]) it was > 50 µM.

Turning to `CCOc1ccc(-n2cnc3cc(/C=C/c4ccc(C(F)(F)F)cc4)ccc32)cc1` [Compound 12, 1-(4-ethoxyphenyl)-5-[(E)-2-[4-(trifluoromethyl)phenyl]vinyl]benzimidazole], the EC50 is 10 to 50 µM in the assay on Junín pseudotyped virus; 10 to 50 µM in assay [1]; 51 µM in assay [2] (read-out: EC50 (Note 1, Machupo)); 196 µM in the assay on VSVg pseudotyped virus (read-out: EC50 (Note 2, VSVg)).

As to `CCC(C)(O)c1ccc(/C=C\c2ccc3c(c2)ncn3-c2ccc(OC(C)C)cc2)cc1` (stereo not shown) [Compound 50, 2-[4-[(Z)-2-[1-(4-isopropoxyphenyl)benzimidazol-5-yl]vinyl]phenyl]butan-2-ol], the EC50 in the assay with Junín pseudotyped virus was < 1 µM; in assay [1], < 1 µM; in assay [2] (setting [4]), < 1 µM; in the assay on VSVg pseudotyped virus (setting [3]), 1 to 10 µM.

As for `CCOc1ccc(-n2cnc3cc(CCc4ccc(CC)cc4)cnc32)cc1` [Compound 28, 3-(4-ethoxyphenyl)-6-[2-(4-ethylphenyl)-ethyl]imidazo[4,5-b]pyridine], the EC50 was < 1 µM in the assay on Junín pseudotyped virus, < 1 µM in assay [1], < 1 µM in assay [2] (setting [4]) and > 50 µM in the assay with VSVg pseudotyped virus (setting [3]).

As for `CCOc1ccc(-n2c[n+]([O-])c3cc(NCc4ccc(CC)cc4)ccc32)cc1` [Compound 67, 1-(4-ethoxyphenyl)-N-[(4-ethylphenyl)-methyl]-3-oxido-benzimidazol-3-ium-5-amine], the EC50 with Junín pseudotyped virus is < 1 µM; in assay [1], < 1 µM; in assay [2] (setting [4]), < 1 µM; with VSVg pseudotyped virus (setting [3]), 10 to 50 µM.

Turning to `CC(C)Oc1ccc(-n2cnc3cc(C4CC4c4ccc(C(C)(C)C)cc4)ccc32)cc1` (stereo not shown) [Compound 36, 5-[2-(4-tert-butylphenyl)cyclopropyl]-1-(4-isopropoxyphenyl)-benzimidazole], the EC50 with Junín pseudotyped virus was < 1 µM; in assay [1], < 1 µM; in assay [2] (setting [4]) it was < 1 µM; in the assay on VSVg pseudotyped virus (setting [3]), 10 to 50 µM.

As to `CC(C)Oc1ccc(-n2cnc3cc(/C=C\c4ccc(C(C)(C)O)cc4)ccc32)cc1` [Compound 38, 2-[4-[(Z)-2-[1-(4-isopropoxyphenyl)benzimidazol-5-yl]vinyl]phenyl]-propan-2-ol], the EC50 in the assay with Junín pseudotyped virus was < 1 µM; in assay [1], < 1 µM; in assay [2] (setting [4]) it was < 1 µM; in the assay on VSVg pseudotyped virus (setting [3]), 1 to 10 µM.

Consider `CCc1ccc(/C=C/c2ccc3c(c2)ncn3-c2ccc(OC(C)C)cc2)cc1` [Compound 8, 5-[(E)-2-(4-ethylphenyl)vinyl]-1-(4-isopropoxyphenyl)-benzimidazole], for which the EC50 is < 1 µM with Junín pseudotyped virus, < 1 µM in assay [1], < 1 µM in assay [2] (setting [4]) and 10 to 50 µM in the assay with VSVg pseudotyped virus (setting [3]).

On to `CC(C)Oc1ccc(-n2cnc3cc(/C=C\c4ccc(C(C)(C)N)cc4)ccc32)cc1` [Compound 60, 2-[4-[(Z)-2-[1-(4-isopropoxyphenyl)benzimidazol-5-yl]vinyl]phenyl]propan-2-amine], for which the EC50 is < 1 µM in the assay on Junín pseudotyped virus, < 1 µM in assay [1], < 1 µM in assay [2] (setting [4]) and > 50 µM with VSVg pseudotyped virus (setting [3]).

In the case of `CCc1ccc(/C=C\c2ccc3c(c2)ncn3-c2ccc(OC(C)(C)C)cc2)cc1` [Compound 15, 1-(4-tert-butoxyphenyl)-5-[(Z)-2-(4-ethylphenyl)-vinyl]benzimidazole], the EC50 in assay [1] was < 1 µM; in the assay with VSVg pseudotyped virus (setting [3]), 10 to 50 µM; in the assay with Sabiá pseudotyped virus, < 1 µM.

In the case of `CCOc1ccc(-n2cnc3cc(OCc4ccc(CC)cc4)ccc32)cc1` [Compound 29, 1-(4-ethoxyphenyl)-5-[(4-ethylphenyl)-methoxy]benzimidazole], the EC50 in the assay on Junín pseudotyped virus is < 1 µM; in assay [1] it was < 1 µM; in assay [2] (setting [4]), < 1 µM; in the assay on VSVg pseudotyped virus (setting [3]), 10 to 50 µM.

Consider `CC(C)Oc1ccc(-n2cnc3cc(/C=C\c4ccc(C5(O)CNC5)cc4)ccc32)cc1` [Compound 58, 3-[4-[(Z)-2-[1-(4-isopropoxyphenyl)benzimidazol-5-yl]vinyl]phenyl]azetidin-3-ol], for which the EC50 is < 1 µM with Junín pseudotyped virus, 1 to 10 µM in assay [1], < 1 µM in assay [2] (setting [4]) and 10 to 50 µM in the assay with VSVg pseudotyped virus (setting [3]).

In the case of `CCOc1ccc(-n2cnc3cc(/C=C\c4ccc(OC(F)(F)F)cc4)ccc32)cc1` [Compound 11, 1-(4-ethoxyphenyl)-5-[(Z)-2-[4-(trifluoromethoxy)phenyl]vinyl]benzimidazole], the EC50 in the assay on Junín pseudotyped virus is < 1 µM; in assay [1], < 1 µM; in assay [2] (setting [4]), < 1 µM; with VSVg pseudotyped virus (setting [3]), 10 to 50 µM.

With `C=C(C)c1ccc(/C=C\c2ccc3c(c2)ncn3-c2ccc(OC(C)C)cc2)cc1` [Compound 40, 5-[(Z)-2-(4-isopropenylphenyl)-vinyl]-1-(4-isopropoxyphenyl)-benzimidazole], the EC50 with Junín pseudotyped virus was < 1 µM; in assay [1], < 1 µM; in assay [2] (setting [4]), < 1 µM; with VSVg pseudotyped virus (setting [3]) it was 10 to 50 µM.

Take `CCOc1ccc(-n2cnc3cc(/C=C\c4ccc(CC)cc4)cnc32)cc1` [Compound 22, 3-(4-ethoxyphenyl)-6-[(Z)-2-(4-ethylphenyl)vinyl]imidazo[4,5-b]pyridine]: the EC50 is < 1 µM in the assay on Junín pseudotyped virus, < 1 µM in assay [1], < 1 µM in assay [2] (setting [4]) and 10 to 50 µM in the assay on VSVg pseudotyped virus (setting [3]).

With `COC(=O)c1ccc(/C=C\c2ccc3c(c2)ncn3-c2ccc(OC(C)C)cc2)cc1` [Compound 37, methyl 4-[(Z)-2-[1-(4-isopropoxyphenyl)-benzimidazol-5-yl]vinyl]benzoate], the EC50 is < 1 µM in the assay on Junín pseudotyped virus, < 1 µM in assay [1], < 1 µM in assay [2] (setting [4]) and 10 to 50 µM in the assay with VSVg pseudotyped virus (setting [3]).

For the molecule `CCOc1ccc(-c2c[nH]c3cc(NCc4ccc(CC)cc4)ccc23)cc1` [Compound 64, 3-(4-ethoxyphenyl)-N-[(4-ethylphenyl)-methyl]-1H-indol-6-amine], the EC50 in the assay with Junín pseudotyped virus is < 1 µM; in assay [1], < 1 µM; in assay [2] (setting [4]), < 1 µM; in the assay on VSVg pseudotyped virus (setting [3]) it was 10 to 50 µM.

Take `CC(C)Oc1ccc(-n2cnc3cc(/C=C\c4ccc(C(C)O)cc4)ccc32)cc1` (stereo not shown) [Compound 51, 1-[4-[(Z)-2-[1-(4-isopropoxyphenyl)benzimidazol-5-yl]vinyl]phenyl]ethanol]: the EC50 in the assay with Junín pseudotyped virus is < 1 µM; in assay [1], < 1 µM; in assay [2] (setting [4]) it was < 1 µM; in the assay on VSVg pseudotyped virus (setting [3]) it was 1 to 10 µM.
